Source: patent US20100316590A1, “COMPOSITIONS AND METHODS RELATED TO POLOXAMER COPOLYMER MEMBRANE SEALANT” (THE BOARD OF REGENTS OF THE UNIVERSITY OF TEXAS SYSTEM, priority 2009, published 2010)

System: SH-SY5Y human neuroblastoma cells

Substance: poloxamer 188 [Poloxamer P188]
- reduction in cell viability of cells treated with P188 alone compared to untreated controls: not statistically significant

Substance: poloxamer 407 [Poloxamer P407]
- toxicity of poloxamer on its own to the cells compared to untreated controls: non-toxic
